Test results from patent US8927738B2, “2-arylimidazole derivatives as PDE10A enzyme inhibitors” (H. Lundbeck A/S, priority 2009, dated 2015).
pIC50: −log10 of the molar value.

Test system: rats
Assay: not given
Conditions: cited from earlier work

Compound	hyperactivity induced by PCP
COc1ccc(Cc2nccc3cc(OC)c(OC)cc23)cc1OC [Papaverine, papaverine]	reduced hyperactivity

Test system: rats
Assay: not given
Conditions: cited from earlier work
Remark: another data set of the same source

Compound	reduction of amphetamine induced hyperactivity
COc1ccc(Cc2nccc3cc(OC)c(OC)cc23)cc1OC [Papaverine, papaverine]	insignificant

Molecular target: PDE10A enzyme (Homo sapiens (Human), UniProt Q9Y233)
Assay: PDE10A inhibition assay
Type: biochemical
Conditions: tritium labeled cAMP substrate 5 nM
Experimental: Active PDE10A enzyme is prepared in a number of ways for use in PDE assays (Loughney, K. et al. Gene 1999, 234, 109-117; Fujishige, K. et al. Eur J Biochem. 1999, 266, 1118-1127 and Soderling, S. et al. Proc. Natl. Acad. Sci. 1999, 96, 7071-7076). PDE10A can be expressed as full-length proteins or as truncated proteins, as long as they express the catalytic domain. PDE10A can be prepared in different cell types, for example insect cells or E. coli. An example of a method to obtain catalytically active PDE10A is as follows: The catalytic domain of human PDE10A (amino acids 440-779 from the sequence with accession number NP 006652) is amplified from total human brain total RNA by standard RT-PCR and is cloned into the BamH1 and Xho1 sites of the pET28a vector (Novagen). Expression in coli is performed according to standard protocols. Briefly, the expression plasmids are transformed into the BL21(DE3) E. coli strain, and 50 mL cultures inoculated with the cells allowed to grow to an OD600 of 0.4-0.6 before protein expression is induced with 0.5 mM IPTG. Following induction, the cells are incubated overnight at room temperature, after which the cells are collected by centrifugation. Cells expressing PDE10A are resuspended in 12 mL (50 mM TRIS-HCl-pH8.0, 1 mM MgCl2 and protease inhibitors). The cells are lysed by sonication, and after all cells are lysed, TritonX100 is added according to Novagen protocols.
A PDE10A assay may for example, be performed as follows: The assay is performed in 60 uL samples containing a fixed amount of the relevant PDE enzyme (sufficient to convert 20-25% of the cyclic nucleotide substrate), a buffer (50 mM HEPES7.6; 10 mM MgCl2; 0.02% Tween20), 0.1 mg/ml BSA, 225 pCi of ^3H-labelled cyclic nucleotide substrate, tritium labeled cAMP to a final concentration of 5 nM and varying amounts of inhibitors. Reactions are initiated by addition of the cyclic nucleotide substrate, and reactions are allowed to proceed for one hr at room temperature before being terminated through mixing with 15 uL 8 mg/mL yttrium silicate SPA beads (Amersham). The beads are allowed to settle for one hr in the dark before the plates are counted in a Wallac 1450 Microbeta counter. The measured signal can be converted to activity relative to an uninhibited control (100%) and IC50 values can be calculated using the Xlfit extension to EXCEL.

Chain of PDE10A enzyme (Q9Y233 716-1055): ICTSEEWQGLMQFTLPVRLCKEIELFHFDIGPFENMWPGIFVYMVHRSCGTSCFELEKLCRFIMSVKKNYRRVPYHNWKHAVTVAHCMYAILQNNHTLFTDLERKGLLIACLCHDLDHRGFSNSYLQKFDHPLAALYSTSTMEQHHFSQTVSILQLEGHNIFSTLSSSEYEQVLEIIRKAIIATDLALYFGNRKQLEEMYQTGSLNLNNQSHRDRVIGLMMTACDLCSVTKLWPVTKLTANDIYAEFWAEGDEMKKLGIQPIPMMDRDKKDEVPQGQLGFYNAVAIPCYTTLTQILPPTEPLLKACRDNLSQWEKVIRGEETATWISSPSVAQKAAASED

Compound	pIC50
Cc1ncc(C)n2nc(CCc3c[nH]c(-c4ccccc4)n3)nc12 [5,8-Dimethyl-2-[2-(2-phenyl-1H-imidazol-4-yl)-ethyl]-[1,2,4]triazolo[1,5-a]pyrazine]	8.38
CCc1ccc(C)n2nc(CCc3cn(C)c(-c4ccccc4)n3)nc12 [8-Ethyl-5-methyl-2-[2-(1-methyl-2-phenyl-1H-imidazol-4-yl)-ethyl]-[1,2,4]triazolo[1,5-a]pyridine]	7.64
Cc1ncc(C)n2nc(CCc3c[nH]c(-c4ccco4)n3)nc12 [2-[2-(2-Furan-2-yl-1H-imidazol-4-yl)-ethyl]-5,8-dimethyl-[1,2,4]triazolo[1,5-a]pyrazine]	9.01
Cc1ccc(C)n2nc(CCc3c[nH]c(-c4cncs4)n3)nc12 [5,8-Dimethyl-2-[2-(2-thiazol-5-yl-1H-imidazol-4-yl)-ethyl]-[1,2,4]triazolo[1,5-a]pyridine]	8.51
Cc1ccc(C)n2nc(CCc3cn(C)c(-c4ccco4)n3)nc12 [2-[2-(2-Furan-2-yl-1-methyl-1H-imidazol-4-yl)-ethyl]-5,8-dimethyl-[1,2,4]triazolo[1,5-a]pyridine]	9.12
Cc1ncc(C)n2nc(CCc3c[nH]c(-c4ccc(F)cc4)n3)nc12 [2-{2-[2-(4-Fluoro-phenyl)-1H-imidazol-4-yl]-ethyl}-5,8-dimethyl-[1,2,4]triazolo[1,5-a]pyrazine]	7.92
COc1ccc(C)n2nc(CCc3c[nH]c(-c4ccccc4)n3)nc12 [8-Methoxy-5-methyl-2-[2-(2-phenyl-1H-imidazol-4-yl)-ethyl]-[1,2,4]triazolo[1,5-a]pyridine]	8.23
COc1ccc(C)n2nc(CCc3cn(C)c(-c4ccccc4)n3)nc12 [8-Methoxy-5-methyl-2-[2-(1-methyl-2-phenyl-1H-imidazol-4-yl)-ethyl]-[1,2,4]triazolo[1,5-a]pyridine]	7.10
Cc1ncc(C)n2nc(CCc3c[nH]c(-c4ccoc4)n3)nc12 [2-[2-(2-Furan-3-yl-1H-imidazol-4-yl)-ethyl]-5,8-dimethyl-[1,2,4]triazolo[1,5-a]pyrazine]	9.57
Cc1ccc(C)n2nc(CCc3c[nH]c(-c4cccs4)n3)nc12 [5,8-Dimethyl-2-[2-(2-thiophen-2-yl-1H-imidazol-4-yl)-ethyl]-[1,2,4]triazolo[1,5-a]pyridine]	9.47
Cc1ccc(C)n2nc(CCc3c[nH]c(-c4nccs4)n3)nc12 [5,8-Dimethyl-2-[2-(2-thiazol-2-yl-1H-imidazol-4-yl)-ethyl]-[1,2,4]triazolo[1,5-a]pyridine]	8.80
Cc1ccc(C)n2nc(CCc3c[nH]c(-c4cscn4)n3)nc12 [5,8-Dimethyl-2-[2-(2-thiazol-4-yl-1H-imidazol-4-yl)-ethyl]-[1,2,4]triazolo[1,5-a]pyridine]	8.46
Cc1ccc(C)n2nc(CCc3c[nH]c(-c4ccoc4)n3)nc12 [2-[2-(2-Furan-3-yl-1H-imidazol-4-yl)-ethyl]-5,8-dimethyl-[1,2,4]triazolo[1,5-a]pyridine]	9.19
Cc1ccc(C)n2nc(CCc3c[nH]c(-c4ccco4)n3)nc12 [2-[2-(2-Furan-2-yl-1H-imidazol-4-yl)-ethyl]-5,8-dimethyl-[1,2,4]triazolo[1,5-a]pyridine]	9.21

Other lines, results leading:

pIC50	Compound
7.96	Cc1ncc(C)n2nc(CCc3cn(C)c(-c4cscn4)n3)nc12 [5,8-Dimethyl-2-[2-(1-methyl-2-thiazol-4-yl-1H-imidazol-4-yl)-ethyl]-[1,2,4]triazolo[1,5-a]pyrazine]
8.46	Cc1ncc(C)n2nc(CCc3c[nH]c(-c4cscn4)n3)nc12 [5,8-Dimethyl-2-[2-(2-thiazol-4-yl-1H-imidazol-4-yl)-ethyl]-[1,2,4]triazolo[1,5-a]pyrazine]
8.05	COc1ccc(C)n2nc(CCc3cn(C)c(-c4cccs4)n3)nc12 [8-Methoxy-5-methyl-2-[2-(1-methyl-2-thiophen-2-yl-1H-imidazol-4-yl)-ethyl]-[1,2,4]triazolo[1,5-a]pyridine]
8.96	Cc1ncc(C)n2nc(CCc3cn(C)c(-c4ccco4)n3)nc12 [2-[2-(2-Furan-2-yl-1-methyl-1H-imidazol-4-yl)-ethyl]-5,8-dimethyl-[1,2,4]triazolo[1,5-a]pyrazine]
7.35	Cc1ncc(C)n2nc(CCc3cn(C)c(-c4ccccc4)n3)nc12 [5,8-Dimethyl-2-[2-(1-methyl-2-phenyl-1H-imidazol-4-yl)-ethyl]-[1,2,4]triazolo[1,5-a]pyrazine]
9.00	Cc1ncc(C)n2nc(CCc3cn(C)c(-c4cccs4)n3)nc12 [5,8-Dimethyl-2-[2-(1-methyl-2-thiophen-2-yl-1H-imidazol-4-yl)-ethyl]-[1,2,4]triazolo[1,5-a]pyrazine]
7.66	Cc1ncc(C)n2nc(CCc3cn(C)c(-c4cncs4)n3)nc12 [5,8-Dimethyl-2-[2-(1-methyl-2-thiazol-5-yl-1H-imidazol-4-yl)-ethyl]-[1,2,4]triazolo[1,5-a]pyrazine]
9.20	Cc1ncc(C)n2nc(CCc3c[nH]c(-c4nccs4)n3)nc12 [5,8-Dimethyl-2-[2-(2-thiazol-2-yl-1H-imidazol-4-yl)-ethyl]-[1,2,4]triazolo[1,5-a]pyrazine]
9.40	Cc1ncc(C)n2nc(CCc3c[nH]c(-c4cccs4)n3)nc12 [5,8-Dimethyl-2-[2-(2-thiophen-2-yl-1H-imidazol-4-yl)-ethyl]-[1,2,4]triazolo[1,5-a]pyrazine]
8.19	Cc1ncc(C)n2nc(CCc3c[nH]c(-c4cncs4)n3)nc12 [5,8-Dimethyl-2-[2-(2-thiazol-5-yl-1H-imidazol-4-yl)-ethyl]-[1,2,4]triazolo[1,5-a]pyrazine]
8.46	Cc1ccc(-c2nc(CCc3nc4c(C)ncc(C)n4n3)cn2C)o1 [5,8-Dimethyl-2-{2-[1-methyl-2-(5-methyl-furan-2-yl)-1H-imidazol-4-yl]-ethyl}-[1,2,4]triazolo[1,5-a]pyrazine]
8.11	Cc1ncc(C)n2nc(CCc3cn(C)c(-c4nccs4)n3)nc12 [5,8-Dimethyl-2-[2-(1-methyl-2-thiazol-2-yl-1H-imidazol-4-yl)-ethyl]-[1,2,4]triazolo[1,5-a]pyrazine]

Test system: rats
Assay: not given
Conditions: papaverine alone; cited from earlier work

Compound	catalepsy caused on its own
COc1ccc(Cc2nccc3cc(OC)c(OC)cc23)cc1OC [Papaverine, papaverine]	did not cause catalepsy on its own

Same assay, conditions: with the D2 receptor antagonist haloperidol; cited from earlier work

Compound	effect on the cataleptic effect of haloperidol
COc1ccc(Cc2nccc3cc(OC)c(OC)cc23)cc1OC [Papaverine, papaverine]	potentiated the cataleptic effect
